Assay results: PMC12203311, “Design, synthesis, in silico and in vitro evaluation of pyrrole–indole hybrids as dual tubulin and aromatase inhibitors with potent anticancer activities” (RSC Advances, 2025)

Experiments:
K-562 = experiment: NCI60 five-dose screen; type: cell-based; conditions: Homo sapiens, K562, K-562, leukemia; for CC50: read-out: LC50 (the source's name)
A549/ATCC = experiment: NCI60 five-dose screen; type: cell-based; conditions: Homo sapiens, NSC lung cancer; for CC50: read-out: LC50 (the source's name)
HOP-62 = experiment: NCI60 five-dose screen; type: cell-based; conditions: Homo sapiens, HOP-62, NSC lung cancer; for CC50: read-out: LC50 (the source's name)
HOP-92 = experiment: NCI60 five-dose screen; type: cell-based; conditions: Homo sapiens, HOP-92, NSC lung cancer; for CC50: read-out: LC50 (the source's name)
NCI-H226 = experiment: NCI60 five-dose screen; type: cell-based; conditions: Homo sapiens, NCI-H226, NSC lung cancer; for CC50: read-out: LC50 (the source's name)
NCI-H460 = experiment: NCI60 five-dose screen; type: cell-based; conditions: Homo sapiens, NCI-H460, NSC lung cancer; for CC50: read-out: LC50 (the source's name)
HCT-116 = experiment: NCI60 five-dose screen; type: cell-based; conditions: Homo sapiens, HCT-116, colon cancer; for CC50: read-out: LC50 (the source's name)
HCT-15 = experiment: NCI60 five-dose screen; type: cell-based; conditions: Homo sapiens, HCT-15, colon cancer; for CC50: read-out: LC50 (the source's name)
HT29 = experiment: NCI60 five-dose screen; type: cell-based; conditions: Homo sapiens, HT-29, HT29, colon cancer; for CC50: read-out: LC50 (the source's name)
SF-539 = experiment: NCI60 five-dose screen; type: cell-based; conditions: Homo sapiens, SF-539, CNS cancer; for CC50: read-out: LC50 (the source's name)
SNB-75 = experiment: NCI60 five-dose screen; type: cell-based; conditions: Homo sapiens, SNB-75, CNS cancer; for CC50: read-out: LC50 (the source's name)
LOX IMVI = experiment: NCI60 five-dose screen; type: cell-based; conditions: Homo sapiens, melanoma; for CC50: read-out: LC50 (the source's name)
OVCAR-3 = experiment: NCI60 five-dose screen; type: cell-based; conditions: Homo sapiens, OVCAR-3, ovarian cancer; for CC50: read-out: LC50 (the source's name)
OVCAR-4 = experiment: NCI60 five-dose screen; type: cell-based; conditions: Homo sapiens, OVCAR-4, ovarian cancer; for CC50: read-out: LC50 (the source's name)
A498 = experiment: NCI60 five-dose screen; type: cell-based; conditions: Homo sapiens, A498, renal cancer; for CC50: read-out: LC50 (the source's name)
ACHN = experiment: NCI60 five-dose screen; type: cell-based; conditions: Homo sapiens, renal cancer; for CC50: read-out: LC50 (the source's name)
CAKI-1 = experiment: NCI60 five-dose screen; type: cell-based; conditions: Homo sapiens, CAKI-1, renal cancer; for CC50: read-out: LC50 (the source's name)
PC-3 = experiment: NCI60 five-dose screen; type: cell-based; conditions: Homo sapiens, PC-3, prostate cancer; for CC50: read-out: LC50 (the source's name)
DU-145 = experiment: NCI60 five-dose screen; type: cell-based; conditions: Homo sapiens, DU-145, prostate cancer; for CC50: read-out: LC50 (the source's name)
BT-549 = experiment: NCI60 five-dose screen; type: cell-based; conditions: Homo sapiens, BT-549, breast cancer; for CC50: read-out: LC50 (the source's name)
[1] = system: T47D breast cancer cell line; experiment: Cytotoxicity MTT assay, T47D; type: cell-based, human; conditions: Homo sapiens, T47D; MTT, 48 hours
Outline: (§1)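 10 000 cells/well, overnight attachment; compound 48 h in DMEM/10% FBS, 37 °C, 5% CO2. MTT 0.5 mg mL^−1, 3 h; formazan in DMSO; A570. % viability vs DMSO vehicle.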

[2] = Cytotoxicity MTT assay, L929; type: cell-based, mouse; conditions: mouse, L929 fibroblast cells; MTT, 48 hours
Outline: as §1

[3] = system: L929 normal mouse fibroblast cell line; experiment: Cytotoxicity MTT assay, L929; type: cell-based; conditions: IC50 (L929)/IC50 (T47D)
Outline: as §1

With `O=C(N/N=C/c1cc(Cl)c[nH]1)c1[nH]c2ccc(Br)cc2c1-c1ccccc1` [Derivative 3h, (E)-5-Bromo-N′-((4-chloro-1H-pyrrol-2-yl)methylene)-3-phenyl-1H-indole-2-carbohydrazide] the GI50 (K-562) was 0.234 µM, the CC50 (K-562) was 5.64 µM and the GI50 (A549/ATCC) was 0.43 µM. The CC50 (A549/ATCC) was 47.4 µM, the GI50 (HOP-62) was 0.408 µM and the CC50 (HOP-62) was 34.7 µM. For the same compound, the GI50 (HOP-92) was 1.19 µM, the CC50 (HOP-92) was 55.4 µM and the GI50 (NCI-H226) was 0.604 µM. It also gave a CC50 (NCI-H226) of over 100 µM, a GI50 (NCI-H460) of 0.281 µM and a CC50 (NCI-H460) of 9.24 µM. For the same compound, the GI50 (HCT-116) was 0.331 µM, the CC50 (HCT-116) was 29.1 µM and the GI50 (HCT-15) was 0.302 µM. The CC50 (HCT-15) was 21.9 µM, the GI50 (HT29) was 0.287 µM and the CC50 (HT29) was 7.2 µM. It also gave a GI50 (SF-539) of 0.231 µM, a CC50 (SF-539) of 22.1 µM and a GI50 (SNB-75) of 0.247 µM. It also gave a CC50 (SNB-75) of 75.5 µM, a GI50 (LOX IMVI) of 0.37 µM and a CC50 (LOX IMVI) of 16.7 µM. The GI50 (OVCAR-3) was 0.27 µM, the CC50 (OVCAR-3) was 19.7 µM and the GI50 (OVCAR-4) was 0.555 µM. It also gave a CC50 (OVCAR-4) of 34.1 µM, a GI50 (A498) of 1.45 µM and a CC50 (A498) of 42.1 µM. For the same compound, the GI50 (ACHN) was 0.493 µM, the CC50 (ACHN) was 32.1 µM and the GI50 (CAKI-1) was 0.253 µM. The CC50 (CAKI-1) was 27.5 µM, the GI50 (PC-3) was 0.426 µM and the CC50 (PC-3) was 47.6 µM. It also gave a GI50 (DU-145) of 0.352 µM, a CC50 (DU-145) of 27.2 µM and a GI50 (BT-549) of 0.255 µM. The CC50 (BT-549) was 18.1 µM, the IC50 [1] was 2.4 ± 1.8 µM and the IC50 at 48 h [2] was 53.7 ± 30.4 µM. For the same compound, the “Selectivity index (SI)” value [3] was 22.4.
`O=C(N/N=C/c1ccc(C(=O)N2CCOCC2)[nH]1)c1[nH]c2ccc(Br)cc2c1-c1ccccc1` [Derivative 3n, (E)-5-Bromo-N′-((5-(morpholine-4-carbonyl)-1H-pyrrol-2-yl)methylene)-3-phenyl-1H-indole-2-carbohydrazide] showed a GI50 (K-562) of 1.27 µM, a CC50 (K-562) of 42.7 µM and a GI50 (A549/ATCC) of 3.88 µM. For the same compound, the CC50 (A549/ATCC) was over 100 µM, the GI50 (HOP-62) was 3.36 µM and the CC50 (HOP-62) was 69.2 µM. The GI50 (HOP-92) was 6.14 µM, the CC50 (HOP-92) was over 100 µM and the GI50 (NCI-H226) was 3.39 µM. The CC50 (NCI-H226) was 81.7 µM, the GI50 (NCI-H460) was 2.49 µM and the CC50 (NCI-H460) was 54.1 µM. For the same compound, the GI50 (HCT-116) was 2.79 µM, the CC50 (HCT-116) was 66.7 µM and the GI50 (HCT-15) was 2.62 µM. The CC50 (HCT-15) was over 100 µM, the GI50 (HT29) was 2.57 µM and the CC50 (HT29) was 38.3 µM. The GI50 (SF-539) was 2.23 µM, the CC50 (SF-539) was 34.9 µM and the GI50 (SNB-75) was 0.809 µM. The CC50 (SNB-75) was 88.9 µM, the GI50 (LOX IMVI) was 3.06 µM and the CC50 (LOX IMVI) was 71.2 µM. The GI50 (OVCAR-3) was 2.57 µM, the CC50 (OVCAR-3) was 47.4 µM and the GI50 (OVCAR-4) was 2.93 µM. For the same compound, the CC50 (OVCAR-4) was over 100 µM, the GI50 (A498) was 3.53 µM and the CC50 (A498) was 59.9 µM. The GI50 (ACHN) was 4.56 µM, the CC50 (ACHN) was over 100 µM and the GI50 (CAKI-1) was 1.46 µM. It also gave a CC50 (CAKI-1) of over 100 µM, a GI50 (PC-3) of 3.44 µM and a CC50 (PC-3) of over 100 µM. The GI50 (DU-145) was 3.72 µM, the CC50 (DU-145) was over 100 µM and the GI50 (BT-549) was 2.36 µM. For the same compound, the CC50 (BT-549) was 55.2 µM, the IC50 [1] was 5.4 ± 4.8 µM and the IC50 at 48 h [2] was 21.8 ± 11.5 µM. For the same compound, the “Selectivity index (SI)” value [3] was 4.04.
